How the values were obtained:
Rattus norvegicus [1] = assay: Anticonvulsant activity in rat at 50 mg/kg, ip measured after 1 hrs by MES test relative to control; format: functional
Rattus norvegicus [2] = assay: Anticonvulsant activity in PTZ induced rat at 50 mg/kg, sc measured after 2 to 4 mins relative to control; format: functional; conditions: time 2-4 min
Thymidylate synthase = Thymidylate synthase (Homo sapiens, UniProt P04818); assay: Inhibition of human TS
[3] = Inhibition of Lacticaseibacillus casei TS
[4] = Binding affinity to AT1 in rabbit aorta; format: tissue-based, Oryctolagus cuniculus
Rattus norvegicus [5] = assay: Anticonvulsant activity in albino rat at 30 mg/kg, ip measured after 1 hrs by MES test; format: functional
Tobacco mosaic virus = assay: Antiviral activity against TMV at 500 microg/ml; format: functional; conditions: dose 500 µg/ml

Chain of Thymidylate synthase (P04818 whole entry): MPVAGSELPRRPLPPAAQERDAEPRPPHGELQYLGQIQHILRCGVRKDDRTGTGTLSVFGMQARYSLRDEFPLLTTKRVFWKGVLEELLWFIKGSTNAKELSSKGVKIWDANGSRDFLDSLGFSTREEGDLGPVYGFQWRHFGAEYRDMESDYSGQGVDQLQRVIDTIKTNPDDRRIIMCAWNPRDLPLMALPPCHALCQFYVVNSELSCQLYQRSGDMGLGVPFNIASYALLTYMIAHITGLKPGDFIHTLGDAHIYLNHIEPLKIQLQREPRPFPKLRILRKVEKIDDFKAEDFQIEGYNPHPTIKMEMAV

| SMILES | Activity (Rattus norvegicus [1]) [%] | Activity (Rattus norvegicus [2]) [%] | inhibition in vivo at 30 mg/kg (Rattus norvegicus [5]) [%] | further results |
| --- | --- | --- | --- | --- |
| Cc1nc2c(Br)cc(Br)cc2c(=O)n1NCC(=O)NNC(N)=S | 20 | 20 | – | – |
| Cc1nc2ccc(Br)cc2c(=O)n1NCc1nnc(NCC2C(=O)NC(=S)NC2=O)s1 | 60 | 60 | – | – |
| Cc1ccc2nc(N)nc(O)c2c1Sc1ccc(C(=O)N[C@H](C(=O)O)c2cccc(O)c2)cc1 | – | – | – | IC50 (Thymidylate synthase): 3 nM; IC50 [3]: 200 nM |
| CCCCCc1nc2ccc(C)cc2c(=O)n1Cc1ccc(-c2ccccc2-c2nn[nH]n2)cc1 | – | – | – | IC50 [4]: ≥ 1.3 nM |
| Cc1nc2c(Br)cc(Br)cc2c(=O)n1NCC(=O)NNC(=S)NCC1C(=O)NC(=S)NC1=O | 40 | 40 | – | – |
| CCCCc1nc2cc(C)ccc2c(=O)n1Cc1ccc(-c2ccccc2C(=O)O)cc1 | – | – | – | IC50 [4]: 370 nM |
| CCCCc1nc2ccc(Cl)cc2c(=O)n1Cc1ccc(-c2ccccc2-c2nn[nH]n2)cc1 | – | – | – | IC50 [4]: ≥ 1.3 nM |
| CCCCc1nc2ccc(N)cc2c(=O)n1Cc1ccc(-c2ccccc2-c2nn[nH]n2)cc1 | – | – | – | IC50 [4]: ≥ 1.3 nM |
| CCCCc1nc2ccc(C(F)(F)F)cc2c(=O)n1Cc1ccc(-c2ccccc2-c2nn[nH]n2)cc1 | – | – | – | IC50 [4]: ≥ 1.3 nM |
| Cc1nc2ccc(Br)cc2c(=O)n1NCc1nnc(NCC2C(=O)NC(=O)NC2=O)s1 | 60 | 60 | – | – |
| Cc1nc2ccccc2c(=O)n1NCc1nnc(N)s1 | 40 | 40 | – | – |
| CCCCc1nc2cc(OC)c(OC)cc2c(=O)n1Cc1ccc(-c2ccccc2-c2nn[nH]n2)cc1 | – | – | – | IC50 [4]: ≥ 1.3 nM |
| Cc1nc2ccccc2c(=O)n1NCC(=O)NNC(=S)NCC1C(=O)NC(=S)NC1=O | 40 | 40 | – | – |
| COc1cc(C2SCC(=O)N2c2nnc(CNn3c(C)nc4ccc(Br)cc4c3=O)s2)ccc1O (centres undefined) | – | – | 60 | – |
| Cc1nc2ccccc2c(=O)n1NCC(=O)NNC(N)=S | 20 | 20 | 30 | – |
| COc1ccc(/C=N/c2nnc(CNn3c(C)nc4ccc(Br)cc4c3=O)s2)cc1 | – | – | 50 | – |
| CCc1nc2ccc(C)cc2c(=O)n1Cc1ccc(-c2ccccc2-c2nn[nH]n2)cc1 | – | – | – | IC50 [4]: ≥ 1.3 nM |
| COc1cc(/C=N/c2nnc(CNn3c(C)nc4ccccc4c3=O)s2)ccc1O | – | – | 50 | – |
| Cc1nc2ccc(Br)cc2c(=O)n1NCc1nnc(N2C(=O)CSC2c2ccccc2)s1 (centres undefined) | – | – | 60 | – |
| O=C1N=C([O-])NC1(c1ccccc1)c1ccccc1.[Na+] [PHENYTOIN SODIUM] | 80 | 80 | 80 | – |
| Cc1nc2ccc(I)cc2c(=O)n1NCC(=O)NNC(=S)NCC1C(=O)NC(=S)NC1=O | 40 | 40 | – | – |

| SMILES | Activity (Rattus norvegicus [1]) [%] | Activity (Rattus norvegicus [2]) [%] | inhibition in vivo at 30 mg/kg (Rattus norvegicus [5]) [%] | further results |
| --- | --- | --- | --- | --- |
| CS(C)(=O)=O [DIMETHYL SULFONE] | – | – | – | IC50 [4]: 2.6 nM |
| CCCCc1nc2ccccc2c(=O)n1Cc1ccc(-c2ccccc2-c2nn[nH]n2)cc1 | – | – | – | IC50 [4]: ≥ 1.3 nM |
| Cc1nc2ccc(Br)cc2c(=O)n1NCc1nnc(N2C(=O)CSC2c2ccc(N(C)C)cc2)s1 (centres undefined) | – | – | 60 | – |
| Cc1nc2ccccc2c(=O)n1NCc1nnc(N2C(=O)CSC2c2ccc(O)cc2)s1 (centres undefined) | – | – | 60 | – |
| Cc1nc2ccc(Br)cc2c(=O)n1NCc1nnc(N2C(=O)CSC2c2ccc(O)cc2)s1 (centres undefined) | – | – | 60 | – |
| CCCCC(=O)Nc1ccc2nc(CCCC)n(Cc3ccc(-c4ccccc4-c4nn[nH]n4)cc3)c(=O)c2c1 | – | – | – | IC50 [4]: ≥ 1.3 nM |
| COc1cccc(C2SCC(=O)N2c2nnc(CNn3c(C)nc4ccccc4c3=O)s2)c1 (centres undefined) | – | – | 60 | – |
| Cc1nc2ccccc2c(=O)n1NCc1nnc(NCC2C(=O)NC(=S)NC2=O)s1 | 60 | 60 | – | – |
| Cc1nc2ccc(Br)cc2c(=O)n1NCc1nnc(/N=C/c2ccc(N(C)C)cc2)s1 | – | – | 50 | – |
| CCCCc1nc2ccc(I)cc2c(=O)n1Cc1ccc(-c2ccccc2-c2nn[nH]n2)cc1 | – | – | – | IC50 [4]: ≥ 1.3 nM |
| Cc1nc2ccc(I)cc2c(=O)n1NCC(=O)NNC(=S)NCC1C(=O)NC(=O)NC1=O | 40 | 40 | – | – |
| COc1ccc(C2SCC(=O)N2c2nnc(CNn3c(C)nc4ccccc4c3=O)s2)cc1 (centres undefined) | – | – | 60 | – |
| CCOC(=O)CNn1c(C)nc2c(Br)cc(Br)cc2c1=O | 10 | 10 | – | – |
| CCCCc1nc2cc3ccccc3cc2c(=O)n1Cc1ccc(-c2ccccc2C(=O)O)cc1 | – | – | – | IC50 [4]: 10 nM |
| Cc1nc2ccccc2c(=O)n1NCc1nnc(/N=C/c2ccccc2)s1 | – | – | 50 | – |
| Cc1nc2c(Br)cc(Br)cc2c(=O)n1NCC(=O)NNC(=S)NCC1C(=O)NC(=O)NC1=O | 40 | 40 | – | – |
| CCCCc1nc2cc(Cl)ccc2c(=O)n1Cc1ccc(-c2ccccc2-c2nn[nH]n2)cc1 | – | – | – | IC50 [4]: ≥ 1.3 nM |
| CCOC(=O)CNn1c(C)nc2ccccc2c1=O | 10 | 10 | 20 | – |
| Cc1nc2ccccc2c(=O)n1NCc1nnc(/N=C/c2ccc(O)cc2)s1 | – | – | 50 | – |
| Cc1nc2ccccc2c(=O)n1NCC(=O)NNC(=S)NCC1C(=O)NC(=O)NC1=O | 40 | 40 | – | – |
| Cc1nc2ccc(I)cc2c(=O)n1NCc1nnc(NCC2C(=O)NC(=O)NC2=O)s1 | 60 | 60 | – | – |

| SMILES | Activity (Rattus norvegicus [1]) [%] | Activity (Rattus norvegicus [2]) [%] | inhibition in vivo at 30 mg/kg (Rattus norvegicus [5]) [%] | further results |
| --- | --- | --- | --- | --- |
| Cc1nc2ccc(Br)cc2c(=O)n1NCc1nnc(/N=C/c2ccccc2)s1 | – | – | 50 | – |
| CCOC(=O)CNn1c(C)nc2ccc(I)cc2c1=O | 10 | 10 | – | – |
| CCCC(CCC)C(=O)[O-].[Na+] [VALPROATE SODIUM] | 80 | 80 | – | – |
| Cc1nc2ccc(Br)cc2c(=O)n1NCC(=O)NNC(=S)NCC1C(=O)NC(=S)NC1=O | 40 | 40 | – | – |
| Cc1nc2ccc(I)cc2c(=O)n1NCc1nnc(NCC2C(=O)NC(=S)NC2=O)s1 | 60 | 60 | – | – |
| Cc1nc2ccccc2c(=O)n1NCc1nnc(/N=C/c2ccc(N(C)C)cc2)s1 | – | – | 50 | – |
| CCCCc1nc2ccc([N+](=O)[O-])cc2c(=O)n1Cc1ccc(-c2ccccc2-c2nn[nH]n2)cc1 | – | – | – | IC50 [4]: ≥ 1.3 nM |
| Cc1nc2ccc(Br)cc2c(=O)n1NCC(=O)NNC(=S)NCC1C(=O)NC(=O)NC1=O | 40 | 40 | – | – |
| Nc1nnc(-c2cccc(Cl)c2Cl)c(N)n1 [LAMOTRIGINE] | – | – | 90 | – |
| COc1ccc(C2SCC(=O)N2c2nnc(CNn3c(C)nc4ccc(Br)cc4c3=O)s2)cc1 (centres undefined) | – | – | 60 | – |
| CCCCc1nc2c(C)cccc2c(=O)n1Cc1ccc(-c2ccccc2C(=O)O)cc1 | – | – | – | IC50 [4]: 370 nM |
| COc1cccc(/C=N/c2nnc(CNn3c(C)nc4ccc(Br)cc4c3=O)s2)c1 | – | – | 50 | – |
| CCCCc1nc2ccc(C)cc2c(=O)n1Cc1ccc(-c2ccccc2C(=O)O)cc1 | – | – | – | IC50 [4]: 10 nM |
| Cc1nc2ccc(Br)cc2c(=O)n1NCC(=O)NNC(N)=S | 20 | 20 | 30 | – |
| CCCc1nc2ccc(C)cc2c(=O)n1Cc1ccc(-c2ccccc2-c2nn[nH]n2)cc1 | – | – | – | IC50 [4]: ≥ 1.3 nM |
| Cc1nc2c(Br)cc(Br)cc2c(=O)n1NCc1nnc(NCC2C(=O)NC(=S)NC2=O)s1 | 60 | 60 | – | – |
| Cc1nc2ccc(I)cc2c(=O)n1NCC(=O)NNC(N)=S | 20 | 20 | – | – |
| CCCCc1nc2ccc(C)cc2c(=O)n1Cc1ccc(-c2ccccc2-c2nn[nH]n2)cc1 | – | – | – | IC50 [4]: ≥ 1.3 nM |
| Cc1nc2c(Br)cc(Br)cc2c(=O)n1NCc1nnc(N)s1 | 40 | 40 | – | – |
| Cc1nc2ccccc2c(=O)n1NCc1nnc(NCC2C(=O)NC(=O)NC2=O)s1 | 60 | 60 | – | – |
| Cc1nc2ccccc2c(=O)n1NCc1nnc(N2C(=O)CSC2c2ccc(N(C)C)cc2)s1 (centres undefined) | – | – | 60 | – |

| SMILES | Activity (Rattus norvegicus [1]) [%] | Activity (Rattus norvegicus [2]) [%] | inhibition in vivo at 30 mg/kg (Rattus norvegicus [5]) [%] | further results |
| --- | --- | --- | --- | --- |
| CCCCc1nc2cccc(F)c2c(=O)n1Cc1ccc(-c2ccccc2-c2nn[nH]n2)cc1 | – | – | – | IC50 [4]: ≥ 1.3 nM |
| CCCCc1nc2ccc(NC(C)=O)cc2c(=O)n1Cc1ccc(-c2ccccc2-c2nn[nH]n2)cc1 | – | – | – | IC50 [4]: ≥ 1.3 nM |
| Cc1nc2ccc(Br)cc2c(=O)n1NCc1nnc(N)s1 | 40 | 40 | – | – |
| CCOC(=O)CNn1c(C)nc2ccc(Br)cc2c1=O | 10 | 10 | 20 | – |
| Cc1nc2ccccc2c(=O)n1NCc1nnc(N2C(=O)CSC2c2ccccc2)s1 (centres undefined) | – | – | 60 | – |
| COc1cc(/C=N/c2nnc(CNn3c(C)nc4ccc(Br)cc4c3=O)s2)ccc1O | – | – | 50 | – |
| Cc1nc2ccc(Br)cc2c(=O)n1NCc1nnc(/N=C/c2ccc(O)cc2)s1 | – | – | 50 | – |
| Cc1nc2ccc(I)cc2c(=O)n1NCc1nnc(N)s1 | 40 | 40 | – | – |
| CCCCc1nc2cccc(C)c2c(=O)n1Cc1ccc(-c2ccccc2C(=O)O)cc1 | – | – | – | IC50 [4]: 370 nM |
| COc1ccc(/C=N/c2nnc(CNn3c(C)nc4ccccc4c3=O)s2)cc1 | – | – | 50 | – |
| O=c1c2ccccc2nc(-c2ccccc2)n1/C=C/c1c(Cl)cccc1Cl | – | – | – | Activity (Tobacco mosaic virus): 54% |
| COc1cccc(/C=C/n2c(C)nc3ccc(Br)cc3c2=O)c1OC | – | – | – | Activity (Tobacco mosaic virus): 54% |
| COc1cc(C2SCC(=O)N2c2nnc(CNn3c(C)nc4ccccc4c3=O)s2)ccc1O (centres undefined) | – | – | 60 | – |
| O=c1c2ccccc2nc(-c2ccccc2)n1/C=C/c1ccc(C(F)(F)F)cc1 | – | – | – | Activity (Tobacco mosaic virus): 54% |
| Cc1nc2c(Br)cc(Br)cc2c(=O)n1NCc1nnc(NCC2C(=O)NC(=O)NC2=O)s1 | 60 | 60 | – | – |
| COc1cccc(/C=N/c2nnc(CNn3c(C)nc4ccccc4c3=O)s2)c1 | – | – | 50 | – |
| CCCCc1nc2ccc(OC)cc2c(=O)n1Cc1ccc(-c2ccccc2-c2nn[nH]n2)cc1 | – | – | – | IC50 [4]: ≥ 1.3 nM |
| CCCCc1nc2ccc(F)cc2c(=O)n1Cc1ccc(-c2ccccc2-c2nn[nH]n2)cc1 | – | – | – | IC50 [4]: ≥ 1.3 nM |
| CCCCc1nc2ccccc2c(=O)n1Cc1ccc(-c2ccccc2C(=O)O)cc1 | – | – | – | IC50 [4]: 92 nM |
| COc1cccc(C2SCC(=O)N2c2nnc(CNn3c(C)nc4ccc(Br)cc4c3=O)s2)c1 (centres undefined) | – | – | 60 | – |
